Experimental data from the CombiSolv-Exp solvation set (Vermeire and Green 2021).

Test: solvent given as SMILES

Structure (SMILES): CCCC(C)C
- solvation free energy, 298 K (in Brc1ccccc1): -3.41 kcal/mol
- solvation free energy, 298 K (in C1CCCCC1): -3.86 kcal/mol
- solvation free energy, 298 K (in C1CCOC1): -3.7 kcal/mol
- solvation free energy, 298 K (in C1COCCO1): -3.03 kcal/mol
- solvation free energy, 298 K (in C=CCCCC): -3.84 kcal/mol
- solvation free energy, 298 K (in C=CCCCCCC): -3.73 kcal/mol
- solvation free energy, 298 K (in C=CCCCCCCCC): -3.64 kcal/mol
- solvation free energy, 298 K (in C=CCCCCCCCCCCCCCC): -3.33 kcal/mol
- solvation free energy, 298 K (in CC1COC(=O)O1): -1.98 kcal/mol
- solvation free energy, 298 K (in CC#N): -2.5 kcal/mol
- solvation free energy, 298 K (in CC(=O)N(C)C): -2.65 kcal/mol
- solvation free energy, 298 K (in CC(=O)O): -2.72 kcal/mol
- solvation free energy, 298 K (in CC(=O)c1ccccc1): -2.84 kcal/mol
- solvation free energy, 298 K (in CC(C)=O): -3.08 kcal/mol
- solvation free energy, 298 K (in CC(C)CC(C)(C)C): -3.72 kcal/mol
- solvation free energy, 298 K (in CC(C)CCCC(C)CCCC(C)CCCCC(C)CCCC(C)CCCC(C)C): -3.28 kcal/mol
- solvation free energy, 298 K (in CC(C)CCO): -3.23 kcal/mol
- solvation free energy, 298 K (in CC(C)O): -3.02 kcal/mol
- solvation free energy, 298 K (in CC(C)OC(C)C): -3.78 kcal/mol
- solvation free energy, 298 K (in CCBr): -3.88 kcal/mol
- solvation free energy, 298 K (in CCC#N): -2.84 kcal/mol
- solvation free energy, 298 K (in CCC(C)=O): -3.27 kcal/mol
- solvation free energy, 298 K (in CCCC#N): -3.05 kcal/mol
- solvation free energy, 298 K (in CCCC(=O)OCC): -3.46 kcal/mol
- solvation free energy, 298 K (in CCCC(C)=O): -3.34 kcal/mol
- solvation free energy, 298 K (in CCCCC): -3.93 kcal/mol
- solvation free energy, 298 K (in CCCCCC): -3.87 kcal/mol
- solvation free energy, 298 K (in CCCCCC(C)=O): -3.35 kcal/mol
- solvation free energy, 298 K (in CCCCCCC): -3.78 kcal/mol
- solvation free energy, 298 K (in CCCCCCCC): -3.71 kcal/mol
- solvation free energy, 298 K (in CCCCCCCCC): -3.67 kcal/mol
- solvation free energy, 298 K (in CCCCCCCCCC): -3.63 kcal/mol
- solvation free energy, 298 K (in CCCCCCCCCCCC): -3.52 kcal/mol
- solvation free energy, 298 K (in CCCCCCCCCCCCCCCC): -3.45 kcal/mol
- solvation free energy, 298 K (in CCCCCCCCCOC(=O)c1ccccc1C(=O)OCCCCCCCCC): -3.02 kcal/mol
- solvation free energy, 298 K (in CCCCCCCCO): -3.18 kcal/mol
- solvation free energy, 298 K (in CCCCCCOC(C)=O): -3.42 kcal/mol
- solvation free energy, 298 K (in CCCCCO): -3.3 kcal/mol
- solvation free energy, 298 K (in CCCCO): -3.12 kcal/mol
- solvation free energy, 298 K (in CCCCOC(C)=O): -3.4 kcal/mol
- solvation free energy, 298 K (in CCCCOCCCC): -3.7 kcal/mol
- solvation free energy, 298 K (in CCCO): -3.01 kcal/mol
- solvation free energy, 298 K (in CCN(CC)CC): -3.81 kcal/mol
- solvation free energy, 298 K (in CCO): -2.97 kcal/mol
- solvation free energy, 298 K (in CCOC(C)=O): -3.29 kcal/mol
- solvation free energy, 298 K (in CCOCC): -3.78 kcal/mol
- solvation free energy, 298 K (in CCOCCOCCOCC): -3.21 kcal/mol
- solvation free energy, 298 K (in CCOc1ccccc1): -3.26 kcal/mol
- solvation free energy, 298 K (in CN1CCCC1=O): -2.55 kcal/mol
- solvation free energy, 298 K (in CN1CCCCC1=O): -2.58 kcal/mol
- solvation free energy, 298 K (in CN(C)C=O): -2.52 kcal/mol
- solvation free energy, 298 K (in CN(C)P(=O)(N(C)C)N(C)C): -2.88 kcal/mol
- solvation free energy, 298 K (in CNC=O): -2.24 kcal/mol
- solvation free energy, 298 K (in CO): -2.68 kcal/mol
- solvation free energy, 298 K (in COC(C)(C)C): -3.77 kcal/mol
- solvation free energy, 298 K (in COC(C)=O): -3.14 kcal/mol
- solvation free energy, 298 K (in COCCO): -2.53 kcal/mol
- solvation free energy, 298 K (in COc1ccccc1): -3.2 kcal/mol
- solvation free energy, 298 K (in CS(C)=O): -1.78 kcal/mol
- solvation free energy, 298 K (in Cc1ccc(C)cc1): -3.64 kcal/mol
- solvation free energy, 298 K (in Cc1ccccc1): -3.65 kcal/mol
- solvation free energy, 298 K (in Cc1ccccn1): -3.28 kcal/mol
- solvation free energy, 298 K (in ClC(Cl)(Cl)Cl): -3.85 kcal/mol
- solvation free energy, 298 K (in ClC(Cl)Cl): -3.72 kcal/mol
- solvation free energy, 298 K (in ClCCCl): -3.24 kcal/mol
- solvation free energy, 298 K (in ClCCl): -3.54 kcal/mol
- solvation free energy, 298 K (in Clc1ccccc1): -3.62 kcal/mol
- solvation free energy, 298 K (in FC(F)(F)C(F)(F)C(F)(F)C(F)(F)C(F)(F)C(F)(F)C(F)(F)C(F)(F)F): -2.43 kcal/mol
- solvation free energy, 298 K (in FC(F)(F)C(F)(F)C(F)(F)C(F)(F)C(F)(F)C(F)(F)F): -2.53 kcal/mol
- solvation free energy, 298 K (in Fc1ccccc1): -3.63 kcal/mol
- solvation free energy, 298 K (in ICI): -1.94 kcal/mol
- solvation free energy, 298 K (in N#Cc1ccccc1): -2.91 kcal/mol
- solvation free energy, 298 K (in Nc1ccccc1): -2.28 kcal/mol
- solvation free energy, 298 K (in O): 2.51 kcal/mol
- solvation free energy, 298 K (in O=C1CCCCC1): -3.16 kcal/mol
- solvation free energy, 298 K (in O=C1CCCO1): -2.1 kcal/mol
- solvation free energy, 298 K (in OCc1ccccc1): -2.47 kcal/mol
- solvation free energy, 298 K (in S=C=S): -3.82 kcal/mol
- solvation free energy, 298 K (in c1ccccc1): -3.61 kcal/mol
- solvation free energy, 298 K (in c1ccncc1): -3.06 kcal/mol

Structure (SMILES): CCOC(OCC)Oc1ccccc1
- solvation free energy, 298 K (in O): -5.23 kcal/mol

Structure (SMILES): O=C(O)c1ccc([N+](=O)[O-])cc1
- solvation free energy, 298 K (in C1CCOC1): -13.3 kcal/mol
- solvation free energy, 298 K (in C1COCCO1): -13.1 kcal/mol
- solvation free energy, 298 K (in CC(C)(C)O): -12.4 kcal/mol
- solvation free energy, 298 K (in CC(C)CCO): -11.9 kcal/mol
- solvation free energy, 298 K (in CC(C)CO): -11.9 kcal/mol
- solvation free energy, 298 K (in CC(C)O): -12.2 kcal/mol
- solvation free energy, 298 K (in CC(C)OC(C)C): -11.3 kcal/mol
- solvation free energy, 298 K (in CC(C)OCCO): -12.6 kcal/mol
- solvation free energy, 298 K (in CC(O)COC(C)(C)C): -12.6 kcal/mol
- solvation free energy, 298 K (in CCC(C)O): -12.1 kcal/mol
- solvation free energy, 298 K (in CCCC(C)O): -12 kcal/mol
- solvation free energy, 298 K (in CCCCCCCCCCO): -11.7 kcal/mol
- solvation free energy, 298 K (in CCCCCCCCO): -11.8 kcal/mol
- solvation free energy, 298 K (in CCCCCCCO): -11.9 kcal/mol
- solvation free energy, 298 K (in CCCCCCO): -12 kcal/mol
- solvation free energy, 298 K (in CCCCCO): -12 kcal/mol
- solvation free energy, 298 K (in CCCCCOC(C)=O): -11.7 kcal/mol
- solvation free energy, 298 K (in CCCCO): -12 kcal/mol
- solvation free energy, 298 K (in CCCCOC(C)=O): -11.9 kcal/mol
- solvation free energy, 298 K (in CCCCOCCO): -12.5 kcal/mol
- solvation free energy, 298 K (in CCCO): -12.2 kcal/mol
- solvation free energy, 298 K (in CCCOCCO): -12.6 kcal/mol
- solvation free energy, 298 K (in CCO): -12.3 kcal/mol
- solvation free energy, 298 K (in CCOC(C)=O): -12.2 kcal/mol
- solvation free energy, 298 K (in CCOCC): -12.2 kcal/mol
- solvation free energy, 298 K (in CCOCCO): -12.8 kcal/mol
- solvation free energy, 298 K (in CN(C)C=O): -12.8 kcal/mol
- solvation free energy, 298 K (in CO): -12.5 kcal/mol
- solvation free energy, 298 K (in COC(C)=O): -12.4 kcal/mol
- solvation free energy, 298 K (in COC(C)CCO): -12.6 kcal/mol
- solvation free energy, 298 K (in O): -9.44 kcal/mol

Structure (SMILES): COc1cc(Cc2cnc(N)nc2N)cc(OC)c1OC
- solvation free energy, 298 K (in C1CCOC1): -19.9 kcal/mol
- solvation free energy, 298 K (in CC(C)O): -19.2 kcal/mol
- solvation free energy, 298 K (in CCC(C)O): -19.4 kcal/mol
- solvation free energy, 298 K (in CCCCO): -19.5 kcal/mol
- solvation free energy, 298 K (in CCCO): -19.8 kcal/mol
- solvation free energy, 298 K (in CCO): -19.8 kcal/mol
- solvation free energy, 298 K (in CO): -20.6 kcal/mol

Structure (SMILES): CCC=CCC
- solvation free energy, 298 K (in C=CCCCCCCCCCCCCCC): -3.51 kcal/mol
- solvation free energy, 298 K (in O): 1.62 kcal/mol

Structure (SMILES): Clc1c(Cl)c(Cl)c2ccccc2c1Cl
- solvation free energy, 298 K (in CCCCCCCCC=CCCCCCCCC(=O)OCC(COC(=O)CCCCCCCC=CCCCCCCCC)OC(=O)CCCCCCCC=CCCCCCCCC): -9.56 kcal/mol
- solvation free energy, 298 K (in O): -2.69 kcal/mol

Structure (SMILES): Cc1cc(NS(=O)(=O)c2ccc(N)cc2)no1
- solvation free energy, 298 K (in O): -17.8 kcal/mol
